Here are results for six molecules from ChEMBL document CHEMBL1146648, “Development of l-3-aminotyrosine suitably protected for the synthesis of a novel nonphosphorylated hexapeptide with low-nanomolar Grb2-SH2 domain-binding affinity” (Bioorg Med Chem Lett, 2004).

pIC50: −log10 of the molar value. Where a SMILES comes first, the peptide text is derived from it. Bridges are numbered along the chain shown (N, C = ends). [ ]: non-standard residue; d: D form. Tyr(3-NH2) = Nc1cc(C[C@H](N)C(=O)O)ccc1O; Gla = N[C@@H](CC(C(=O)O)C(=O)O)C(=O)O; Aad = N[C@@H](CCCC(=O)O)C(=O)O; Ac6c = NC1(C(=O)O)CCCCC1; Ava = NCCCCC(=O)O

What is called pIC50 is the IC50 on a negative log10 scale, so that one unit is a factor of ten. A high value points to a small IC50.

The target in the experiment is Growth factor receptor-bound protein 2 (Homo sapiens, UniProt P62993). Nature of the experiment: Competitive binding affinity against Growth factor receptor bound protein 2 was assessed using SHC(pTyr-317) phospopeptide in biacore surface plasmon resonance (SPR) method. For orientation: In SPR one partner is held on a chip, and binding of the other changes the refractive index at the surface.
Sequence of Growth factor receptor-bound protein 2 (P62993 whole entry): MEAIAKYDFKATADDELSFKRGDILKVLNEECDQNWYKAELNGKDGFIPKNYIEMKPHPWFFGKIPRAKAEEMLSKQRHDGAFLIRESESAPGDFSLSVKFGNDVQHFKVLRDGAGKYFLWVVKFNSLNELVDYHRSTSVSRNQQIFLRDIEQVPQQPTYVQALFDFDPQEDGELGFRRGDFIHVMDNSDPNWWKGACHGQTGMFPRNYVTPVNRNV
In turn, `CC(C)C[C@@H]1NC(=O)[C@H](CC(C(=O)O)C(=O)O)NC(=O)C[S+]([O-])C[C@H](C(N)=O)NC(=O)CCCCNC(=O)[C@H](C(C)C)NC(=O)[C@H](CC(N)=O)NC(=O)C2(CCCCC2)NC(=O)[C@H](Cc2ccc(O)c(N)c2)NC1=O` (stereo partly specified) showed a pIC50 of 5.97. In the case of `CC(C)C[C@@H]1NC(=O)[C@H](CCCC(=O)O)NC(=O)C[S+]([O-])C[C@@H](C(N)=O)NC(=O)CCCCNC(=O)[C@H](C(C)C)NC(=O)[C@H](CC(N)=O)NC(=O)C2(CCCCC2)NC(=O)[C@H](Cc2ccc(O)cc2)NC1=O` (stereo partly specified), the pIC50 is 5.01. With `CC(C)C[C@@H]1NC(=O)[C@H](CCCC(=O)O)NC(=O)C[S+]([O-])C[C@H](C(N)=O)NC(=O)CCCCNC(=O)[C@H](C(C)C)NC(=O)[C@H](CC(N)=O)NC(=O)C2(CCCCC2)NC(=O)[C@H](Cc2ccc(O)cc2)NC1=O` (stereo partly specified) the figure was 4.07; with `CC(C)C[C@@H]1NC(=O)[C@H](CC(C(=O)O)C(=O)O)NC(=O)C[S+]([O-])C[C@@H](C(N)=O)NC(=O)CCCCNC(=O)[C@H](C(C)C)NC(=O)[C@H](CC(N)=O)NC(=O)C2(CCCCC2)NC(=O)[C@H](Cc2ccc(O)c(N)c2)NC1=O` (stereo partly specified), 7.30. Take `CC(C)C[C@@H]1NC(=O)[C@H](CCCC(=O)O)NC(=O)CSC[C@@H](C(N)=O)NC(=O)CCCCNC(=O)[C@H](C(C)C)NC(=O)[C@H](CC(N)=O)NC(=O)C2(CCCCC2)NC(=O)[C@H](Cc2ccc(O)cc2)NC1=O` ({CH2CO}-[Aad]LY[Ac6c]NV[Ava]C-NH2; thioether N-8): the pIC50 is 4.94. With `CC(C)C[C@@H]1NC(=O)[C@H](CC(C(=O)O)C(=O)O)NC(=O)CSC[C@@H](C(N)=O)NC(=O)CCCCNC(=O)[C@H](C(C)C)NC(=O)[C@H](CC(N)=O)NC(=O)C2(CCCCC2)NC(=O)[C@H](Cc2ccc(O)c(N)c2)NC1=O` ({CH2CO}-[Gla]L[Tyr(3-NH2)][Ac6c]NV[Ava]C-NH2; thioether N-8), the pIC50 is 6.80.
